Measurements published in article PMC5510653 (ACS chemical neuroscience, 2016).

Experiments:
TH immunolabeling = assay: Post-mortem TH immunoperoxidase staining of striatum; assay type: in vivo, Rhesus monkeys; settings: 7 MPTP-treated animals vs mean of 3 non-treated monkeys, mean ± SEM
[1] = system: MDCK-MDR1 (MDCK-Pgp) cells
[2] = system: MPTP-treated parkinsonian monkeys; assay: Motor behavior in MPTP-treated parkinsonian monkeys; assay type: in vivo, Rhesus monkeys
[3] = system: MPTP-treated parkinsonian monkey; assay: ECoG recordings and scoring of state of arousal and movements; assay type: in vivo, Rhesus monkey; settings: ML218 3 mg/kg s.c., one monkey
[4] = rhesus monkey
[5] = system: electrical cardiac activities; assay: Effects of ML218 on cardiac function; assay type: in vivo, Rhesus monkeys; settings: ketamine sedation
[6] = rhesus monkey, in vivo, sc, 10 mg/kg
[7] = system: haloperidol-induced catalepsy; settings: haloperidol-induced catalepsy model in rats ref 38; cited from earlier work
slow-wave sleep = settings: mice ref 39, 40; cited from earlier work

CN1CC=C(c2ccccc2)CC1 [MPTP]
reduction of TH immunolabeling in the caudate (TH immunolabeling): 89 ± 3%
reduction of TH immunolabeling in the post-commissural putamen (TH immunolabeling): 87 ± 3%

CC(C)(C)CCN1C[C@@H]2C(CNC(=O)c3cc(Cl)cc(Cl)c3)[C@@H]2C1 (stereo partly shown) [ML218]
Papp AB [1]: 2.6e^− 6 cm/sec
effect of adding ML218 on L-DOPA-mediated responses ([2]; ML218 3 mg/kg s.c. 60 min before L-DOPA 10 mg/kg i.m. plus 2.5 mg/kg benserazide): did not alter the L-DOPA-mediated responses
activity counts compared to baseline ([2]; ML218 10 mg/kg s.c., p=0.002): reduced
number of movements compared to baseline ([2]; ML218 10 mg/kg s.c., p=0.006): reduced
antiparkinsonian effects (number of movements, activity counts) ([2]; ML218 1, 10 and 30 mg/kg s.c., observed from 1 hour after injection): no antiparkinsonian effects
mean number of movements per 5 minute of observation ([3]; 2 hours of observation, vehicle 51.07 ± 6.42, p=0.016): 25.39 ± 4.52
sleep ratio ([3]; within 120 minutes, vehicle 0.09 ± 0.06, p=0.008): 0.54 ± 0.06
Fu (fraction of unbound compound in plasma) [4]: 0.09
chronotropic effect (R-R interval) ([5]; 30 mg/kg s.c., ECG two hours after injection, 3 animals): minor negative chronotropic effects
effects on the other ECG parameters studied (PR, RT intervals) ([5]; 10 and 30 mg/kg s.c.): no consistent effects
CSF Tmax [6]: 1 to 2 h
anti-cataleptic properties [7]: anti-cataleptic properties

N[C@@H](Cc1ccc(O)c(O)c1)C(=O)O [L-DOPA, reference compound]
antiparkinsonian effects (number of movements, activity counts) ([2]; L-DOPA 5, 10, 15, 20 mg/kg i.m. in combination with benserazide): strong, dose-dependent antiparkinsonian effects

C[C@@H](NC(=O)Cc1ccc(C2CC2)cc1)c1ccc(OCC(F)(F)F)cn1 [TTA-A2]
effect on slow-wave sleep (slow-wave sleep): promotes slow-wave sleep
